Results: PMC11233931, “Remodeling tumor‐associated macrophage for anti‐cancer effects by rational design of irreversible inhibition of mitogen‐activated protein kinase‐activated protein kinase 2” (MedComm, 2024)
Where two headings read alike, the source gives them in different places.

Columns and labels:
Experiment in all cases: Eurofins kinase selectivity profile against 380 other human recombinant kinases (Table S2)
Assay type in all cases: biochemical
[1] = target: T1, 380 human recombinant protein kinases (Homo sapiens, UniProt P37023); conditions: ALK1(h), read-out: Inhibition rate
T1 construct: purchased Eurofins (Celle Lévescault)
In short: (§1)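 Values come from a contract kinase-profiling service that tested the compound at multiple concentrations across 380 recombinant human kinases, as an off-target check against the MK2 activity.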

[2] = target: T2, 380 human recombinant protein kinases (Homo sapiens, UniProt P68400); conditions: read-out: Inhibition rate; for inhibition at 0.01 µM: 10 nM; for inhibition at 0.1 µM: 100 nM; for inhibition at 1 µM: 1000 nM
T2 construct: purchased Eurofins (Celle Lévescault)
In short: as §1

[3] = target: T3, 380 human recombinant protein kinases (Homo sapiens, UniProt Q9UHD2); conditions: TBK1(h), read-out: Inhibition rate (%)
T3 construct: purchased Eurofins (Celle Lévescault)
T3 sequence (Q9UHD2 1-729): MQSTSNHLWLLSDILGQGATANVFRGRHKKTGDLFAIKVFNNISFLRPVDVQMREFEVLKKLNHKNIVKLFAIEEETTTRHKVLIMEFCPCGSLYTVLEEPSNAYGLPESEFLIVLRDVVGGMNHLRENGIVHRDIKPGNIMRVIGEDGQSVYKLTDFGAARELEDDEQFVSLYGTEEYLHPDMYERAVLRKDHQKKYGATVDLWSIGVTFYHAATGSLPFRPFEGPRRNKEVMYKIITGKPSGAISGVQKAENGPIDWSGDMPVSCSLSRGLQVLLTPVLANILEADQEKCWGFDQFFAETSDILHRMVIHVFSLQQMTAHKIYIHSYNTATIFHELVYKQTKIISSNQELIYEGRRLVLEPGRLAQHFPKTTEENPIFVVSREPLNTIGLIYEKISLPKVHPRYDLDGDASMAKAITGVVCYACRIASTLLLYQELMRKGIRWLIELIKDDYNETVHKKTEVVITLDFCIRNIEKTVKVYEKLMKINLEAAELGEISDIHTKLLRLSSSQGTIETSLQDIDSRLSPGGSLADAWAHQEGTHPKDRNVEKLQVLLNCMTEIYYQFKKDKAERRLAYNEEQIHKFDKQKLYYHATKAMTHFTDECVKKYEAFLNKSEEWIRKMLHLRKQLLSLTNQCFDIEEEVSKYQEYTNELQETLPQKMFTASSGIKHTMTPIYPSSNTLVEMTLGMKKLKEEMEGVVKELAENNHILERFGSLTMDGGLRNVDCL
In short: as §1

[4] = target: T4, 380 human recombinant protein kinases (Homo sapiens, UniProt Q16584); conditions: MLK3(h), read-out: Inhibition rate
T4 construct: purchased Eurofins (Celle Lévescault)
In short: as §1

[5] = target: T5, 380 human recombinant protein kinases (Homo sapiens, UniProt Q9Y463); conditions: DYRK1B(h), read-out: Inhibition rate
T5 construct: purchased Eurofins (Celle Lévescault)
In short: as §1

[6] = target: T6, 380 human recombinant protein kinases (Homo sapiens, UniProt Q9UEE5); conditions: DRAK1(h), read-out: Inhibition rate
T6 construct: purchased Eurofins (Celle Lévescault)
T6 sequence (Q9UEE5 1-414): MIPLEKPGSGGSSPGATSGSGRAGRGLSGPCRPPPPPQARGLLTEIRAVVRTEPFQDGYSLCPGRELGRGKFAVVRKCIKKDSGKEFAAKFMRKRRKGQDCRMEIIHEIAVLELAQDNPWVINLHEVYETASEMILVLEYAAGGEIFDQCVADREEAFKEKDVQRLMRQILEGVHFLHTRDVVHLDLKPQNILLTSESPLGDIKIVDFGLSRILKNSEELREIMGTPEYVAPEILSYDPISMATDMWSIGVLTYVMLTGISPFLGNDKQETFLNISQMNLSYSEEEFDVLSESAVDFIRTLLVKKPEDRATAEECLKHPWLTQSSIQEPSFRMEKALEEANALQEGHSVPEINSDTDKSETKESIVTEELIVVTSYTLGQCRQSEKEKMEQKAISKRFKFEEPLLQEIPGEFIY
In short: as §1

[7] = target: T7, 380 human recombinant protein kinases (Homo sapiens, UniProt P09769); conditions: Fgr(h), read-out: Inhibition rate
T7 construct: purchased Eurofins (Celle Lévescault)
In short: as §1

T4 sequence (Q16584 whole entry): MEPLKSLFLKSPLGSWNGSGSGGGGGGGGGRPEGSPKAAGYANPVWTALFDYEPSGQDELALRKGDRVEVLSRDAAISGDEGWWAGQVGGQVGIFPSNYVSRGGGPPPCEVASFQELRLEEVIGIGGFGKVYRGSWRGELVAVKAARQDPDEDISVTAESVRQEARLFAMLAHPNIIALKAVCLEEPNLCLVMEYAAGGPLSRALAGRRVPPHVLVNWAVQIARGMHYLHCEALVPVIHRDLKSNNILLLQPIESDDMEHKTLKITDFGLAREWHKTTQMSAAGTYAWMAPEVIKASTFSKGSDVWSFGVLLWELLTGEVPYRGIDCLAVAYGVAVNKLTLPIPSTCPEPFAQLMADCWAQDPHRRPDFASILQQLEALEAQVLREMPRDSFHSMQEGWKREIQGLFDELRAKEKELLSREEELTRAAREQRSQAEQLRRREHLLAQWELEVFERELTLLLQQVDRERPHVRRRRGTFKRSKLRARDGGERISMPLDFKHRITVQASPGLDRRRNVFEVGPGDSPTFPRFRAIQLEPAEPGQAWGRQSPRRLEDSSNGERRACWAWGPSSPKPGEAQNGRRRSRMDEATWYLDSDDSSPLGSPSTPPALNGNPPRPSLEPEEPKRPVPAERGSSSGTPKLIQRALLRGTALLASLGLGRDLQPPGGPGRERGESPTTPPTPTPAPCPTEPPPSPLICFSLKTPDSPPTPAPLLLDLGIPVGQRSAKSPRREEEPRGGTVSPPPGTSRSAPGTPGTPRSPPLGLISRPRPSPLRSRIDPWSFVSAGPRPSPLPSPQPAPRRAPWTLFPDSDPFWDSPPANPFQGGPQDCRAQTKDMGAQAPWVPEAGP
T5 sequence (Q9Y463 whole entry): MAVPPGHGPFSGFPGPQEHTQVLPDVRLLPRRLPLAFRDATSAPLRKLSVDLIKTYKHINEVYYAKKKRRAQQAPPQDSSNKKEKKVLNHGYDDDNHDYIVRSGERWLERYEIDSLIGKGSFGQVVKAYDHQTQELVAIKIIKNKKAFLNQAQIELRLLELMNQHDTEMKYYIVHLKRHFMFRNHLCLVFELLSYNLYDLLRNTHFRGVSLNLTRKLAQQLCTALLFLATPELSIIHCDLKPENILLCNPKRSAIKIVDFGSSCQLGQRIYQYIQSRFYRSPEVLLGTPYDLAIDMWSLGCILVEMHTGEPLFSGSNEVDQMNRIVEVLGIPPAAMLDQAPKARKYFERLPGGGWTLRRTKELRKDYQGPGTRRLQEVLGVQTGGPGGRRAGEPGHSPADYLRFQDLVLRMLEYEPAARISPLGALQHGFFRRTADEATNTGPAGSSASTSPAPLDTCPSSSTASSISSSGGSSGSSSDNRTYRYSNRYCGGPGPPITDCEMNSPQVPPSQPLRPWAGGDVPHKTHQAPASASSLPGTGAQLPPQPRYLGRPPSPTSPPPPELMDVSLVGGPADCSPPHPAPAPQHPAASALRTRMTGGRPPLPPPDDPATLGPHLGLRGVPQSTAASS
T7 sequence (P09769 whole entry): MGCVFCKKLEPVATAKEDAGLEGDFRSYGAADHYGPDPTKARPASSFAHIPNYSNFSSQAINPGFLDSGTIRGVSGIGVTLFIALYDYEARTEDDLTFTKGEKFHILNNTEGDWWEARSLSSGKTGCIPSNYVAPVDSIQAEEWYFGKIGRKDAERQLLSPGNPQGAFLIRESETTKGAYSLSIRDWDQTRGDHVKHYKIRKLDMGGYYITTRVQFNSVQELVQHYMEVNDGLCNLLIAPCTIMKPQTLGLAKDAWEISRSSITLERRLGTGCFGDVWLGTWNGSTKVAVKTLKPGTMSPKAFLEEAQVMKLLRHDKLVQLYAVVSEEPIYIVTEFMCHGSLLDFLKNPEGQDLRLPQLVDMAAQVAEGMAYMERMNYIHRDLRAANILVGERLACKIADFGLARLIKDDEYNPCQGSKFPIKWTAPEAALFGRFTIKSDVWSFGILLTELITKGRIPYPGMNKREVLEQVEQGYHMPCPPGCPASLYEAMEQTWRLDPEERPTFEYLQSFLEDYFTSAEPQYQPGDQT
T2 sequence (P68400 whole entry): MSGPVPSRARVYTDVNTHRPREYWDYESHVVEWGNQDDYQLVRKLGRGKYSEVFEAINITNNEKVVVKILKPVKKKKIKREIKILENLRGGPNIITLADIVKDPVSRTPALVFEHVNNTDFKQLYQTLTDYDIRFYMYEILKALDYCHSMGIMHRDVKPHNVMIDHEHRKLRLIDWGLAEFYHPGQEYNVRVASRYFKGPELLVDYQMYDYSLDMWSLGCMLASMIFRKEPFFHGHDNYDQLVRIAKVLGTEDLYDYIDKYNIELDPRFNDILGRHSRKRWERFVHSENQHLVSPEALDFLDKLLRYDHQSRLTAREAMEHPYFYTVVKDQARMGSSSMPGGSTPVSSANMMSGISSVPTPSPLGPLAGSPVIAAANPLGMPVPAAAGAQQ
T1 sequence (P37023 22-503): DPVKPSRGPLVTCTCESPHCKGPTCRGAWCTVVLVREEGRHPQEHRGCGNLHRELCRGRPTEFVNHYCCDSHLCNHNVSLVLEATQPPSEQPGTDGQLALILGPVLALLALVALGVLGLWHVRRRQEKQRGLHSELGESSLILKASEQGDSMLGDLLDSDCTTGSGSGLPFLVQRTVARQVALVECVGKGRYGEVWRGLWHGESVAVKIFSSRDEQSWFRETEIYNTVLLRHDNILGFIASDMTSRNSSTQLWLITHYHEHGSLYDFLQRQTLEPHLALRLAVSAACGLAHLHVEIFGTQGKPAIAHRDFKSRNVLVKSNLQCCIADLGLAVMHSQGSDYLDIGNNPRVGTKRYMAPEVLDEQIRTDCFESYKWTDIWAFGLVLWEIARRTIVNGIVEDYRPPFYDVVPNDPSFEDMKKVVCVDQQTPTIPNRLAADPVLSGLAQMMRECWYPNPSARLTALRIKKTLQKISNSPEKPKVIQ

## C=CC(=O)Nc1cc(-c2cc(-c3cc4c([nH]3)CCNC4=O)ccn2)ccc1OC(F)(F)F [compound 11]
[1]; 10 nM
  inhibition at 0.01 µM: -16%
[1]; 100 nM
  inhibition at 0.1 µM: -12%
[1]; 1000 nM
  inhibition at 1 µM: -9%
[2]; CK2(h)
  inhibition at 0.01 µM: -3%
  inhibition at 0.1 µM: -1%
  inhibition at 1 µM: 0%
[2]; CK2α1(h)
  inhibition at 0.01 µM: -9%
  inhibition at 0.1 µM: -2%
  inhibition at 1 µM: 9%
[3]; 10 nM
  inhibition at 0.01 µM: 1%
[3]; 100 nM
  inhibition at 0.1 µM: -13%
[3]; 1000 nM
  inhibition at 1 µM: -7%
[4]; 10 nM
  inhibition at 0.01 µM: -2%
[4]; 100 nM
  inhibition at 0.1 µM: 8%
[4]; 1000 nM
  inhibition at 1 µM: 43%
[5]; 10 nM
  inhibition at 0.01 µM: 21%
[5]; 100 nM
  inhibition at 0.1 µM: 77%
[5]; 1000 nM
  inhibition at 1 µM: 97%
[6]; 10 nM
  inhibition at 0.01 µM: 13%
[6]; 100 nM
  inhibition at 0.1 µM: 41%
[6]; 1000 nM
  inhibition at 1 µM: 82%
[7]; 10 nM
  inhibition at 0.01 µM: 1%
[7]; 100 nM
  inhibition at 0.1 µM: 0%
[7]; 1000 nM
  inhibition at 1 µM: 0%
